This is an account of results in US11040035B2, “3-oxo-2,6-diphenyl-2,3-dihydropyridazine-4-carboxamides” (BAYER PHARMA AKTIENGESELLSCHAFT, priority 2016, dated 2021).

Data set [1] deals with T1, AHR (Homo sapiens, UniProt P35869).
T1 sequence (P35869 11-848): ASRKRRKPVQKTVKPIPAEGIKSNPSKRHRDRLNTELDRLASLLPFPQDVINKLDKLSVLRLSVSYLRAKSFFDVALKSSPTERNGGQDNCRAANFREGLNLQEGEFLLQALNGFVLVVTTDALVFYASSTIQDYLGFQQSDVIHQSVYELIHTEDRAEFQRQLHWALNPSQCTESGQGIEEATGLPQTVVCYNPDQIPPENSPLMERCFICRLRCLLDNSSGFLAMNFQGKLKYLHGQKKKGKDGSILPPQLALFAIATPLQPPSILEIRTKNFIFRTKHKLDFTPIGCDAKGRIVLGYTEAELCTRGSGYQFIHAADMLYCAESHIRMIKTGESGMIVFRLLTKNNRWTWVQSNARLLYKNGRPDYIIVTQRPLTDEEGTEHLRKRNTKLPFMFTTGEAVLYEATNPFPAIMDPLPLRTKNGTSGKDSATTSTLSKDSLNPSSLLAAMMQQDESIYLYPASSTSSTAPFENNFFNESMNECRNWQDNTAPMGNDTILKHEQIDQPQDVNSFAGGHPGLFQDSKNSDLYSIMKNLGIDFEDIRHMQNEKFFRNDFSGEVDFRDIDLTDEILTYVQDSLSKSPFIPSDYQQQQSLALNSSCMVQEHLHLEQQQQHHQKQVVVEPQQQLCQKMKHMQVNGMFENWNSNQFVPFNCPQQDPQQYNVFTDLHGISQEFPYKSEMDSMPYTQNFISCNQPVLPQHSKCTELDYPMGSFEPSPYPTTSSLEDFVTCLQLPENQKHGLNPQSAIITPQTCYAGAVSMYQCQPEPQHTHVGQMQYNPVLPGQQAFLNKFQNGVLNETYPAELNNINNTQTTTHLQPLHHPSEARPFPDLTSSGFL
Nature of the data set: In vitro assay 2: agonism in human cell line (transactivation assay).
Description: Transactivation Assay in Human Cell Line (In Vitro Assays 1 and 2)
Transactivation assays were carried out in U87 glioblastoma cells (ATCC) endogenously expressing AHR. In addition the cells were stably transfected with an AHR inducible firefly luciferase reporter gene construct that carried AHR-binding sites (DRE) in its promoter and a renilla reporter gene construct with constitutively active promoter.
In Vitro Assay 2: Agonism in Human Cell Line
Cells in medium (tryptophan free RPMI, 1% FCS, 2 mM Glutamine) were grown for 20 hours in absence (negative control) or presence of increasing concentrations of test compounds (typical dilutions: 72 pmol/L, 0.25 nmol/L, 0.89 nmol/L; 3.1 nmol/L, 11 nmol/L, 38 nmol/L, 130 nmol/L, 470 nmol/L, 1.6 μmol/L, 5.7 μmol/L and 20 μmol/L in duplicates). As positive activation control cells were incubated with 300 μM kynurenic acid. Normalization was done by positive and negative controls.
Firefly luciferase activity was determined by the SteadyGlo Luciferase Assay System (Promega, #2520).

Data set [2] has as its system AHR-regulated gene CYP1A1. Description: In vitro assay 3: AHR-regulated CYP1A1 expression in human cell line (U937, qPCR).
Data set [3] addresses T1, AHR. Nature of the data set: In vitro assay 1: antagonism in human cell line (transactivation assay, kynurenic acid prestimulated). Conditions: Assay 1: AHR-luc Hum Antagonism IC50 [M], 150 μM kynurenic acid, 20 hours, firefly luciferase.
Where [4] appears, read: read-out: Assay 2: AHR-luc Hum Agonism IC50, no kynurenic acid, 20 hours, firefly luciferase.
[5] abbreviates: read-out: Assay 3: Hum CYP1A1 Antagonism IC50, U937 cells, 200 μM KA, 6 hours, qPCR.
Where [6] appears, read: Assay 2: AHR-luc Hum Agonism IC50 [M], no kynurenic acid, 20 hours, firefly luciferase.
The mark [7] stands for this setting: Homo sapiens, U-937, 6 h, read-out: Assay 3: Hum CYP1A1 Antagonism IC50 [M], U937 cells, 200 μM KA, 6 hours, qPCR.

Where two headings read alike, the source gives them in different places.

For `COc1ccc(-c2cc(C(=O)NC(CO)C(F)(F)F)c(=O)n(-c3cccc(F)c3)n2)cc1` (single isomer, unassigned) [Example 102, 2-(3-Fluorophenyl)-6-(4-methoxyphenyl)-3-oxo-N-(1,1,1-trifluoro-3-hydroxypropan-2-yl)-2,3-dihydropyridazine-4-carboxamide], the results for the IC50 (on AHR [1] (setting [4]); in data set [2] (setting [5]); on AHR [3]) were > 2e-05 M, 4.37e-08 M and 4.22e-08 M, respectively.

`O=C(N[C@@H]1CCCC[C@@H]1O)c1cc(-c2ccc(Cl)cc2)nn(-c2cccc(F)c2)c1=O` (single isomer, unassigned) [Example 104, 6-(4-Chlorophenyl)-2-(3-fluorophenyl)-N-(cis-2-hydroxycyclohexyl)-3-oxo-2,3-dihydropyridazine-4-carboxamide]: the 50% inhibitory concentration (IC50) – broadly, the point on the concentration scale where inhibition reaches its midpoint – is > 2e-05 M at AHR [1] (setting [6]), 1.64e-08 M in data set [2] (setting [7]) and 1.57e-08 M on AHR [3].

`COc1ccc(-c2cc(C(=O)N[C@@H]3CCCC[C@@H]3O)c(=O)n(-c3cccc(F)c3)n2)cc1` (single isomer, unassigned) [Example 107, 2-(3-Fluorophenyl)-N-(cis-2-hydroxycyclohexyl)-6-(4-methoxyphenyl)-3-oxo-2,3-dihydropyridazine-4-carboxamide]: the results for the IC50 (at AHR [1] (setting [6]); in data set [2] (setting [7]); on AHR [3]) were > 2e-05 M, 1.83e-08 M and 1.76e-08 M, respectively.

As for `O=C(N[C@H]1CCCC[C@@H]1O)c1cc(-c2ccc(Cl)cc2)nn(-c2cccc(F)c2)c1=O` (single isomer, unassigned) [Example 118, 6-(4-chlorophenyl)-2-(3-fluorophenyl)-N-(trans-2-hydroxycyclohexyl)-3-oxo-2,3-dihydropyridazine-4-carboxamide], the IC50 was > 2e-05 M at AHR [1] (setting [6]), 3.13e-08 M in data set [2] (setting [7]) and 3.25e-08 M on AHR [3].

For the compound `O=C(N[C@H]1CCC[C@@H]1O)c1cc(-c2ccc(Cl)cc2)nn(-c2cccc(F)c2)c1=O` (single isomer, unassigned) [Example 124, 6-(4-Chlorophenyl)-2-(3-fluorophenyl)-N-(trans-2-hydroxycyclopentyl)-3-oxo-2,3-dihydropyridazine-4-carboxamide], the IC50 against AHR [1] (setting [6]) is > 2e-05 M; in data set [2] (setting [7]) it was 3.59e-08 M; against AHR [3], 3.65e-08 M.

Regarding `COc1ccc(-c2cc(C(=O)NCC(O)C(F)(F)F)c(=O)n(-c3cccc(F)c3)n2)cc1` (single isomer, unassigned) [Example 127, 2-(3-Fluorophenyl)-6-(4-methoxyphenyl)-3-oxo-N-(3,3,3-trifluoro-2-hydroxypropyl)-2,3-dihydropyridazine-4-carboxamide], the IC50 at AHR [1] (setting [6]) is > 2e-05 M; in data set [2] (setting [5]), 6.08e-08 M; at AHR [3], 4.05e-08 M.

Consider `COc1ccc(-c2cc(C(=O)NCC(O)C(F)(F)F)c(=O)n(-c3cccc(F)c3)n2)cc1` (single isomer, unassigned) [Example 128, 2-(3-Fluorophenyl)-6-(4-methoxyphenyl)-3-oxo-N-(3,3,3-trifluoro-2-hydroxypropyl)-2,3-dihydropyridazine-4-carboxamide], for which the concentration for half-maximal inhibition (IC50) at AHR [1] (setting [4]) was > 2e-05 M; in data set [2] (setting [5]) it was 6e-07 M; against AHR [3], 1.7e-07 M.

As for `O=C(N[C@H]1COC[C@@H]1O)c1cc(-c2ccc(Cl)cc2)nn(-c2cccc(F)c2)c1=O` (single isomer, unassigned) [Example 135, 6-(4-Chlorophenyl)-2-(3-fluorophenyl)-N-(trans-4-hydroxytetrahydrofuran-3-yl)-3-oxo-2,3-dihydropyridazine-4-carboxamide], the IC50 is > 2e-05 M at AHR [1] (setting [6]), 1.32e-07 M in data set [2] (setting [7]) and 1.41e-07 M against AHR [3].

Consider `O=C(NC(CO)C1CCOC1)c1cc(-c2ccc(OC(F)F)cc2)nn(-c2cccc(F)c2)c1=O` (single isomer, unassigned) [Example 145, 6-[4-(Difluoromethoxy)phenyl]-2-(3-fluorophenyl)-N-{(2-hydroxy-1-tetrahydrofuran-3-yl)ethyl}-3-oxo-2,3-dihydropyridazine-4-carboxamide], for which the IC50 at AHR [1] (setting [6]) is > 2e-05 M; in data set [2] (setting [7]), 3.89e-08 M; at AHR [3], 9.33e-08 M.

In the case of `O=C(NC(CO)C(F)(F)F)c1cc(-c2ccc(OC(F)(F)F)cc2)nn(-c2cccc(F)c2)c1=O` (single isomer, unassigned) [Example 170, 2-(3-Fluorophenyl)-3-oxo-N-(1,1,1-trifluoro-3-hydroxypropan-2-yl)-6-[4-(trifluoromethoxy)phenyl]-2,3-dihydropyridazine-4-carboxamide], the results for the IC50 (against AHR [1] (setting [6]); in data set [2] (setting [7]); on AHR [3]) were > 2e-05 M, 1.42e-08 M and 1.19e-08 M, respectively.

On to `O=C(NC(CO)C1CCOC1)c1cc(-c2ccc(OC(F)(F)F)cc2)nn(-c2cccc(F)c2)c1=O` (single isomer, unassigned) [Example 175, 2-(3-Fluorophenyl)-N-[2-hydroxy-1-(tetrahydrofuran-3-yl)ethyl]-3-oxo-6-[4-(trifluoromethoxy)phenyl]-2,3-dihydropyridazine-4-carboxamide], for which the IC50 against AHR [1] (setting [6]) is > 2e-05 M; in data set [2] (setting [5]), 3.76e-08 M; against AHR [3], 2.91e-08 M.

`O=C(NC(CO)C1CCOC1)c1cc(-c2ccc(OC(F)(F)F)cc2)nn(-c2cccc(F)c2)c1=O` (single isomer, unassigned) [Example 176, 2-(3-Fluorophenyl)-N-[2-hydroxy-1-(tetrahydrofuran-3-yl)ethyl]-3-oxo-6-[4-(trifluoromethoxy)phenyl]-2,3-dihydropyridazine-4-carboxamide]: the half-maximal inhibitory concentration (IC50) at AHR [1] (setting [4]) is > 2e-05 M; in data set [2] (setting [5]) it was 1.02e-07 M; at AHR [3], 1.71e-07 M.

As to `O=C(NC(CO)C1CCOC1)c1cc(-c2ccc(OC(F)(F)F)cc2)nn(-c2cccc(F)c2)c1=O` (single isomer, unassigned) [Example 177, 2-(3-Fluorophenyl)-N-[2-hydroxy-1-(tetrahydrofuran-3-yl)ethyl]-3-oxo-6-[4-(trifluoromethoxy)phenyl]-2,3-dihydropyridazine-4-carboxamide], the values for the 50% inhibitory concentration (IC50) (at AHR [1] (setting [4]); in data set [2] (setting [5]); on AHR [3]) were > 2e-05 M, 6e-07 M and 3.19e-07 M, respectively.

With `O=C(NC(CO)C1CCOC1)c1cc(-c2ccc(OC(F)(F)F)cc2)nn(-c2cccc(F)c2)c1=O` (single isomer, unassigned) [Example 178, 2-(3-Fluorophenyl)-N-[2-hydroxy-1-(tetrahydrofuran-3-yl)ethyl]-3-oxo-6-[4-(trifluoromethoxy)phenyl]-2,3-dihydropyridazine-4-carboxamide], the half-inhibitory concentration (IC50) on AHR [1] (setting [4]) was > 2e-05 M; in data set [2] (setting [5]), 1.13e-07 M; on AHR [3] it was 1.27e-07 M.

As for `CC(O)C(C)NC(=O)c1cc(-c2ccc(OC(F)(F)F)cc2)nn(-c2cccc(F)c2)c1=O` (single isomer, unassigned) [Example 181, 2-(3-Fluorophenyl)-N-(3-hydroxybutan-2-yl)-3-oxo-6-[4-(trifluoromethoxy)phenyl]-2,3-dihydropyridazine-4-carboxamide], the half-maximal inhibitory concentration (IC50) is > 2e-05 M on AHR [1] (setting [4]), 2.12e-07 M in data set [2] (setting [7]) and 8.02e-08 M against AHR [3].

For the compound `O=C(NCC(O)C(F)(F)F)c1cc(-c2ccc(OC(F)(F)F)cc2)nn(-c2cccc(F)c2)c1=O` (single isomer, unassigned) [Example 183, 2-(3-Fluorophenyl)-3-oxo-N-(3,3,3-trifluoro-2-hydroxypropyl)-6-[4-(trifluoromethoxy)phenyl]-2,3-dihydropyridazine-4-carboxamide], the figures for the IC50 (at AHR [1] (setting [6]); in data set [2] (setting [5]); on AHR [3]) were > 2e-05 M, 4.14e-08 M and 3.78e-08 M, respectively.

Turning to `O=C(NCC(O)C(F)(F)F)c1cc(-c2ccc(OC(F)(F)F)cc2)nn(-c2cccc(F)c2)c1=O` (single isomer, unassigned) [Example 184, 2-(3-Fluorophenyl)-3-oxo-N-(3,3,3-trifluoro-2-hydroxypropyl)-6-[4-(trifluoromethoxy)phenyl]-2,3-dihydropyridazine-4-carboxamide], the IC50 was > 2e-05 M on AHR [1] (setting [4]), 1.29e-07 M in data set [2] (setting [5]) and 1.34e-07 M against AHR [3].

For `CC(O)C(NC(=O)c1cc(-c2ccc(Cl)cc2)nn(-c2cccc(F)c2)c1=O)C(F)(F)F` (single isomer, unassigned) [Example 198, 6-(4-chlorophenyl)-2-(3-fluorophenyl)-3-oxo-N-(1,1,1-trifluoro-3-hydroxybutan-2-yl)-2,3-dihydropyridazine-4-carboxamide], the results for the 50% inhibitory concentration (IC50) (on AHR [1] (setting [6]); in data set [2] (setting [7]); at AHR [3]) were > 2e-05 M, 1.49e-08 M and 1.34e-08 M, respectively.
